Laboratory results taken from doi:10.1101/2020.02.10.936898v1 (biorxiv, 2020).

Key:
[1] = target: T1, CVB3 3C^pro (Coxsackievirus B3, UniProt Q5UEA2); experiment: FRET peptide cleavage assay; format: biochemical
[2] = target: HCoV-NL63 M^pro (Human coronavirus NL63, UniProt P0C6X5); experiment: FRET peptide cleavage assay; format: biochemical
[3] = target: EV-A71 3C^pro (Human enterovirus 71 (strain BRCR), UniProt Q66478); details: read-out: EV-A71 3Cpro; inhibitor
[4] = target: T1, CVB3 3C^pro; experiment: biochemical
[5] = tested on: EV-A71; experiment: microbe, parasite or virus in culture; design: species or system Huh-T7; details: Enterovirus A, EVA71, read-out: EV-A71 replicon *
[6] = tested on: CVB3 (Nancy); experiment: microbe, parasite or virus in culture; design: species or system Huh-T7; details: Enterovirus B, CVB3, read-out: CVB3 replicon *

EV-A71 3C^pro, sequence (Q66478 1549-1731): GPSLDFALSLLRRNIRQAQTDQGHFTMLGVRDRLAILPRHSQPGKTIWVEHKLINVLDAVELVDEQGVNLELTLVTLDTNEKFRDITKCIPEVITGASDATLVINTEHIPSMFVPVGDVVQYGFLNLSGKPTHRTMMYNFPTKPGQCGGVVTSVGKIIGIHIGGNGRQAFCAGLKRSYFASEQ
HCoV-NL63 M^pro, sequence (P0C6X5 2940-3242): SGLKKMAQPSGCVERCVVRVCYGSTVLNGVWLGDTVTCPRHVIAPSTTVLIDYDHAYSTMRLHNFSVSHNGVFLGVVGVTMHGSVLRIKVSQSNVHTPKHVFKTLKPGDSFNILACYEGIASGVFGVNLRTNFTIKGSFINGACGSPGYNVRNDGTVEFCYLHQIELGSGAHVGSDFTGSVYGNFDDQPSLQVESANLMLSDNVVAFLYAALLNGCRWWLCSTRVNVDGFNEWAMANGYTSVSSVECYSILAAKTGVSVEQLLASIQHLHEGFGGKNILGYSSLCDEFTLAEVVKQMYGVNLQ

C#CC[C@H](NC(=O)/C=C/c1ccccc1)C(=O)N[C@@H](C[C@@H]1CCNC1=O)C(=O)C(=O)NCc1ccccc1 [11p, (S)-N-((S)-4-(benzylamino)-3,4-dioxo-1-((S)-2-oxopyrrolidin-3-yl)butan-2-yl)-2-cinnamamidopent-4-ynamide]
IC50 [1]: 8.93 ± 2.39 µM | IC50 [2]: 17.4 ± 3.97 µM

COC(=O)CNC(=O)C(=O)[C@H](C[C@@H]1CCNC1=O)NC(=O)[C@H](Cc1ccccc1)NC(=O)/C=C/c1ccccc1 [11e]
IC50 [3]: 11.1 ± 2.64 µM | IC50 [4]: 9.91 ± 1.84 µM

CC(C)(C)OC(=O)N[C@@H](C[C@@H]1CCNC1=O)C(=O)C(=O)NCc1ccccc1 [11f, tert-Butyl ((S)-4-(benzylamino)-3,4-dioxo-1-((S)-2-oxopyrrolidin-3-yl)butan-2-yl)carbamate]
IC50 [1]: > 50 µM | IC50 [2]: > 50 µM

O=C(NCc1ccccc1)C(=O)[C@H](C[C@@H]1CCNC1=O)NC(=O)[C@H](Cc1ccccc1)NC(=O)c1cccc2c1OCCO2 [11i]
IC50 [3]: 9.74 ± 3.88 µM | IC50 [4]: 4.82 ± 1.17 µM

O=C(NCc1ccccc1)C(=O)[C@H](C[C@@H]1CCNC1=O)NC(=O)[C@H](Cc1ccccc1)NC(=O)c1ccc2c(c1)OCCO2 [11h]
IC50 [3]: 4.75 ± 2.73 µM | IC50 [4]: 3.66 ± 0.79 µM

O=C(/C=C/c1ccccc1)N[C@@H](Cc1ccc(F)cc1)C(=O)N[C@@H](C[C@@H]1CCNC1=O)C(=O)C(=O)NCc1ccccc1 [11m, (S)-N-benzyl-3-((S)-2-cinnamamido-3-(4-fluorophenyl)propanamido)-2-oxo-4-((S)-2-oxopyrrolidin-3-yl)butanamide]
IC50 [1]: 8.69 ± 1.28 µM | IC50 [2]: > 50 µM

O=C(/C=C/c1ccccc1)N[C@@H](CC1CC1)C(=O)N[C@@H](C[C@@H]1CCNC1=O)C(=O)C(=O)NCc1ccccc1 [11s, (S)-N-benzyl-3-((S)-2-cinnamamido-3-cyclopropylpropanamido)-2-oxo-4-((S)-2-oxopyrrolidin-3-yl)butanamide]
IC50 [1]: 4.25 ± 1.4 µM | IC50 [2]: 1.37 ± 0.35 µM

O=C(/C=C/c1ccccc1)N[C@@H](CC1CCCCC1)C(=O)N[C@@H](C[C@@H]1CCNC1=O)C(=O)C(=O)NCc1ccccc1 [11r, (S)-N-benzyl-3-((S)-2-cinnamamido-3-cyclohexylpropanamido)-2-oxo-4-((S)-2-oxopyrrolidin-3-yl)butanamide]
IC50 [1]: 0.95 ± 0.15 µM | IC50 [2]: 12.3 ± 3.56 µM | EC50 [5]: 0.85 µM | EC50 [6]: 0.45 µM

CCCCNC(=O)C(=O)[C@H](C[C@@H]1CCNC1=O)NC(=O)[C@H](Cc1ccccc1)NC(=O)/C=C/c1ccccc1 [11b]
IC50 [3]: 2.38 ± 0.58 µM | IC50 [4]: 1 ± 0.35 µM

CC(C)C[C@H](NC(=O)/C=C/c1ccccc1)C(=O)N[C@@H](C[C@@H]1CCNC1=O)C(=O)C(=O)NCc1ccccc1 [11n, (S)-N-((S)-4-(benzylamino)-3,4-dioxo-1-((S)-2-oxopyrrolidin-3-yl)butan-2-yl)-2-cinnamamido-4-methylpentanamide]
IC50 [1]: 3.82 ± 1.21 µM | IC50 [2]: 1.08 ± 0.09 µM

CC(C)CNC(=O)C(=O)[C@H](C[C@@H]1CCNC1=O)NC(=O)[C@H](CC(C)C)NC(=O)/C=C/c1ccccc1 [11d]
IC50 [3]: 17.7 ± 8.78 µM | IC50 [4]: 6.5 ± 0.58 µM

O=C(NCc1ccccc1)C(=O)[C@H](C[C@@H]1CCNC1=O)NC(=O)[C@H](Cc1ccccc1)NC(=O)c1cc2ccccc2s1 [11k]
IC50 [3]: > 50 µM | IC50 [4]: 18.6 ± 0.58 µM

O=C(NCc1ccccc1)C(=O)[C@H](C[C@@H]1CCNC1=O)NC(=O)[C@H](Cc1ccccc1)NC(=O)c1cn2cc(Br)ccc2n1 [11l]
IC50 [3]: > 50 µM | IC50 [4]: 30.8 ± 12.9 µM

CC(C)(C)NC(=O)C(=O)[C@H](C[C@@H]1CCNC1=O)NC(=O)[C@H](Cc1ccccc1)NC(=O)/C=C/c1ccccc1 [11c]
IC50 [3]: 19 ± 5.79 µM | IC50 [4]: 9.86 ± 2.68 µM

O=C(/C=C/c1ccccc1)N[C@@H](CC1CCCC1)C(=O)N[C@@H](C[C@@H]1CCNC1=O)C(=O)C(=O)NCc1ccccc1 [11u, (S)-N-benzyl-3-((S)-2-cinnamamido-3-cyclopentylpropanamido)-2-oxo-4-((S)-2-oxopyrrolidin-3-yl)butanamide]
IC50 [1]: 1.93 ± 0.43 µM | IC50 [2]: 5.41 ± 2.31 µM | EC50 [5]: 3.65 µM | EC50 [6]: 4.9 µM

O=C(/C=C/c1ccccc1)N[C@@H](CC1CCC1)C(=O)N[C@@H](C[C@@H]1CCNC1=O)C(=O)C(=O)NCc1ccccc1 [11t, (S)-N-benzyl-3-((S)-2-cinnamamido-3-cyclobutylpropanamido)-2-oxo-4-((S)-2-oxopyrrolidin-3-yl)butanamide]
IC50 [1]: 4.78 ± 1.13 µM | IC50 [2]: 3.43 ± 2.45 µM | EC50 [6]: 2.2 µM

CCCC[C@H](NC(=O)/C=C/c1ccccc1)C(=O)N[C@@H](C[C@@H]1CCNC1=O)C(=O)C(=O)NCc1ccccc1 [11o, (S)-N-((S)-4-(benzylamino)-3,4-dioxo-1-((S)-2-oxopyrrolidin-3-yl)butan-2-yl)-2-cinnamamidohexanamide]
IC50 [1]: 5.2 ± 0.28 µM | IC50 [2]: > 50 µM

O=C(/C=C/c1ccccc1)N[C@@H](Cc1ccccc1)C(=O)N[C@@H](C[C@@H]1CCNC1=O)C(=O)C(=O)NCc1ccccc1 [11a, (S)-N-benzyl-3-((S)-2-cinnamamido-3-phenylpropanamido)-2-oxo-4-((S)-2-oxopyrrolidin-3-yl)butanamide]
IC50 [1]: 6.56 ± 3.1 µM | IC50 [2]: > 50 µM

O=C(/C=C/c1ccccc1)N[C@H](C(=O)N[C@@H](C[C@@H]1CCNC1=O)C(=O)C(=O)NCc1ccccc1)C1CC1 [11q, (S)-N-benzyl-3-((S)-2-cinnamamido-2-cyclopropylacetamido)-2-oxo-4-((S)-2-oxopyrrolidin-3-yl)butanamide]
IC50 [1]: 15.4 ± 4.12 µM | IC50 [2]: 11.5 ± 5.05 µM

O=C(NCc1ccccc1)C(=O)[C@H](C[C@@H]1CCNC1=O)NC(=O)[C@H](Cc1ccccc1)NC(=O)c1cc2ccccc2o1 [11j]
IC50 [3]: 11.3 ± 6.52 µM | IC50 [4]: 9.19 ± 2.99 µM

O=C(CCc1ccccc1)N[C@@H](Cc1ccccc1)C(=O)N[C@@H](C[C@@H]1CCNC1=O)C(=O)C(=O)NCc1ccccc1 [11g]
IC50 [3]: 4.57 ± 1.04 µM | IC50 [4]: 3.5 ± 1.06 µM
